According to article PMC4501791, “Molecular Design, Synthesis and Trypanocidal Activity of Dipeptidyl Nitriles as Cruzain Inhibitors” (PLoS Neglected Tropical Diseases, 2015):
Read-outs that look alike come from different tables or passages of the source.

How the values were obtained:
[1] = tested on: T. cruzi Tulahuen strain amastigotes; test: Trypanocidal activity against amastigote forms in LLCMK2 cells, Tulahuen strain; format: cell-based; details: Trypanosoma cruzi; for killing at 32 µM: LLC-MK2, 120 h, amastigote lysis, 5 days, read-out: %cell lysis at 32 μM ama Tula; for EC50: LLC-MK2
Description: (§1) The assays against amastigote forms were performed in LLCMK2 cells. Previously, the cells were cultivated in 96-wells microplates (10^3 cells/well). […] After this, the microplates were incubated at 37°C, in CO2 atmosphere, for 5 days. Then, 10 μL of FluoReporter lacZ/Galactosidase Quantitative Kit (Life Technologies) were added and after 30 minutes the fluorometric reaction was read in a microplate reader (Synergy H1, Biotek) at 386 nm excitation and 448 nm emission. For both assays the percentage of parasite lysis was determined from the following formula: %lysis = 100 –{[(X-PC)/(PC-NC)]x100}, where the optical density values of the samples (X), the positive controls (PC) and negative controls (NC) were used. Culture medium was used as positive control (PC) and medium with 0.6% DMSO (v/v) as negative control (NC). All assays were performed in triplicate with two independent experiments.

LLCMK2 cells = test: Lysis of LLCMK2 host cells; format: cell-based; details: Macaca mulatta, LLC-MK2, 32 μM, read-out: %cell lysis at 32 μM LLCMK2
[2] = Lysis of LLCMK2 host cells; format: cell-based; details: rhesus monkey, footnote of Table 3, cell line not stated
[3] = tested on: T. cruzi CL-Brener strain amastigotes; test: Trypanocidal activity against amastigote forms in LLCMK2 cells, CL-Brener strain; format: cell-based; details: Trypanosoma cruzi, LLC-MK2, 120 h, amastigote lysis, 5 days, read-out: %cell lysis at 32 μM ama Brener
Description: as §1

[4] = tested on: Balb-c 3T3 clone A31 cells; test: MTT cytotoxicity assay using mouse fibroblast cells; format: cell-based; details: 250 μM, Balb-c 3T3 cells, MTT, 24, 48 and 72 h, benznidazole as control
Description: All compounds were subjected to the MTT colorimetric assay using Balb-c 3T3 clone A31 cells (mouse fibroblast cells) acquired from the Rio de Janeiro Cell Bank (BCRJ code 0047). Inhibition values were determined in the cell-based assay as previously described. Briefly, cells were cultured at 37°C in an atmosphere of 5% CO2 using DMEM medium (Cultilab, Campinas-SP, Brazil) supplemented with 3.5 g glucose (Sigma-Aldrich), 1% penicillin/streptomycin solution and 10% FBS (Cultilab). Cells were plated at a concentration of 10^5 cell/mL in 96-well plates and incubated for 24 h. All compounds were freshly diluted from 50 mM DMSO stock solutions to obtain the final concentration of 250 μM and added to each well by replacing the medium. The cell viability was assessed during 24, 48 and 72 h using the MTT (Sigma-Aldrich) reagent, with an incubation time of 3 h. […] The readout was obtained using Biotek Synergy HT plate reader at 570 nm. Benznidazole was used as control. This assay was done in quatruplicate in two independent experiments. Statistical analyses were made in GraphPad Prism 5. Dunnett’s multiple comparison tests were performed using benznidazole as the standard compound for the ordinary ANOVA analysis using 95% confidence interval.

cruzain = target: T1, cruzain (Trypanosoma cruzi, UniProt P25779); test: biochemical; details: 37°C, pH 5.5, substrate Z-FR-AMC;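 also: fluorometric read-out of substrate hydrolysis at excitation 355 nm and emission 460 nm, initial rates over 5 min, Ki from nonlinear kinetic fits, duplicate runs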
T1 construct: made in house
Description: Enzyme kinetic assays were carried out at 37°C in 200 L of a solution containing 100 mM acetate buffer pH 5.5, 300 mM NaCl, 5 mM DTT (dithiothreitol), 5% v/v DMSO (dimethyl sulfoxide), 0.01% v/v Triton X-100 and 0.15 nM cruzain, using Corning® 96-well black flat bottom microplates. The rate of the reaction was monitored using a Biotek Synergy HT plate reader through the fluorescence emission at 460 nm (excitation at 355 nm) due to the hydrolysis of the substrate Z-Phe-Arg-7-amido-4-methylcoumarin (Z-FR-AMC, Sigma-Aldrich). The enzyme stock aliquot was rapidly thawed at 37°C and kept on ice until activation, in which it was incubated for 20 min. in the assay buffer (100 mM acetate pH 5.5 and 5 mM DTT) followed by additional 2 min. incubation with inhibitors before the reaction was started by the addition of the substrate.
Visual inspection and a pre-reading of plate wells were performed to check for possible precipitation and background fluorescence, respectively. Fluorescence emission spectra were also recorded for all inhibitors, using the same excitation wavelength (355 nm) as for the fluorometric assay. […] The reaction was started by the addition of varying concentrations of the substrate and the wells monitored for a total of 5 minutes of reaction. The initial velocities of the substrate hydrolysis under first-order reaction were calculated by Gen5 Biotek software based on the linear-regression coefficient from the fit to data of Relative Fluorescence Unit (mRFU) as a function of time (min).
Each experiment was performed in duplicates for each compound being tested. […] All inhibitors were evaluated in two different concentrations, which were chosen based on a previous screening (percentage of inhibition) at 1.7 μM substrate (~K M). […] SigmaPlot (v. 10.0) was employed for the non-linear fit and the kinetic parameters determination.

[5] = amastigote, T. cruzi Tulahuen strain, read-out: pEC50 ama Tula (converted)

T1 sequence (P25779 123-337 limits assumed): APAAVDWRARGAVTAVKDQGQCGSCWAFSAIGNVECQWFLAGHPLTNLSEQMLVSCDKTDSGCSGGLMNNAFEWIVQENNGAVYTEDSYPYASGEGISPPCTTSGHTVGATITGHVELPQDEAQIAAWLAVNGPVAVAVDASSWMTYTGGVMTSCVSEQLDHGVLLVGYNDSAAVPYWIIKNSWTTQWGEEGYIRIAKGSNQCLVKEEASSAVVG

SMILES	killing at 32 µM ([1]; T. cruzi Tulahuen strain) [%]	EC50 [1, 5] [µM]	cytotoxicity at 32 µM (LLCMK2 cells) [%]	CC50 at 5 days [2] [µM]	killing at 32 µM [3] [%]	EC50 ([1]; against the parasite (amastigote, Tulahuen strain), read-out: EC50) [µM]	cytotoxicity [4]	Ki (cruzain) [µM]	melting point [°C]
O=C(Cn1ccnc1[N+](=O)[O-])NCc1ccccc1 [Benznidazole, reference compound]	78 ± 3	1.58	31 ± 2	353	29 ± 2				
N#CCNC(=O)[C@H](Cc1c[nH]c2ccccc12)NC(=O)c1ccccc1 [Compound 12, (2S)-N-(cyanomethyl)-3-(1H-indol-3-yl)-2-(phenylformamido)propanamide]	60 ± 5	25.1	34 ± 5		17 ± 1	28	same range of cytotoxicity when compared to benznidazole	0.398	158 to 159
